# Test results reported in patent US10336984B2, “Method of molecular stress control” (CPSI Holdings LLC, priority 2010, dated 2019).
# “Also recorded” adds a separate entry of the source. Read-outs that look alike come from different tables or passages of the source.
# Legend:
# [1] = system: human hepatoma (C3A); type: cell-based
# Excerpt: Samples were processed utilizing industry standard media (Roswell Park Memorial Institute, RPMI, media), cryo-protective agents and techniques. Cell survival response curves were plotted against varying concentrations of DMSO. Samples were frozen, thawed, cultured to allow for recovery, and then frozen again. This process was repeated 4 times (e.g. Freeze #1, Freeze #2, Freeze #3, Freeze #4) over experimental periods of several weeks (FIG. 8).
# As the intent of cell-guard is to reduce the negative effects of stress response of cells during normothermic culture processing, a series of studies using the freeze stress model were conducted examining the potential of stress response modulation during recovery culture. The studies examined the effect of modulating the apoptotic cell death mechanism, caspase cascade, as well as mitochondrial oxidative stress pathways. While numerous studies have looked at caspase and free radical formation inhibition during stresses including freezing, no studies have been reported looking to the effect of post-processing manipulation.
# As such, in FIG. 9, C3A samples were frozen using industry standard protocols in culture media+0%, 2%, 5%, and 10% DMSO. […]
# [2] = system: RM-9 prostate cancer cells; assay: Survival of RM-9 prostate cancer cells under cryotreatment (freezing) stress; type: cell-based, mouse; conditions: high doses
# Excerpt: Experiments have been completed and have expanded the scope of study to (1) include natural agents as part of the formulation and (2) target various stress pathways that may be activated in cells when they are bioprocessed. A variety of agents were used in addition to resveratrol. Of these, Vitamin D3 (i.e. calcitriol) at high doses protects the cells. […] Here, the stress regime included cryotreatment (freezing).
# [3] = system: primary human hepatocytes; assay: Hypothermic stress of primary human hepatocytes with supplements; type: cell-based; conditions: hypothermic exposure at 4° C.
# Method: (§1) Thermal Stress Regime: Cells were seeded into 96-well tissue culture plates (13,000 cells per well) and cultured for 24 hours into a monolayer. Culture media was decanted from experimental plates and replaced with 100 μl/well of the pre-cooled (4° C.) solution (complete growth media, HBSS with calcium and magnesium, ViaSpan, or OptiSol). Cultures were maintained at 4° C. for 18 hours to 9 days. Following cold storage, the media were decanted, replaced with 100 μl/well of room temperature (˜25° C.) complete culture media and then placed into standard culture conditions (37° C., 5% CO2) for recovery and assessment.
# (§2) Cell Viability Assay: To assess cell viability the metabolic activity assay, alamarBlue™ (Invitrogen) was utilized. Cell culture medium was decanted from the 96-well plates and 100 μl/well of the working alamarBlue™ solution (1:20 dilution in HBSS) was applied. Samples were then incubated for 60 minutes (±1 min) at 37° C. in the dark. The fluorescence levels were analyzed using a Tecan SPECTRAFluorPlus plate reader (TECAN, Austria GmbH). Relative fluorescence units were converted to a percentage compared to normothermic controls set at 100%. Readings were taken immediately following removal from hypothermic storage as well as 24 and 48 hours of recovery.
# As such, in FIG. 20, primary human hepatocytes were then subjected to the same hypothermic stress paradigm. […]
# [4] = system: human hepatoma C3A cell lines; assay: C3A cells three days under optimal culture conditions with FR-234 (alamarBlue); type: cell-based; conditions: highest dose, 100 μg/mL; three days at 37° C., 5% CO2
# Method: FIG. 7 assesses the effect of the stress modulator, resveratrol (FR-234), exposure for three days under optimal culture conditions in human hepatoma C3A cell lines. In this graph, C3A cells were stored for three days under optimal culture conditions (37° C., 5% CO2) with a range of FR-234 doses. Cells were removed from storage after three days. Storage solutions were replaced with fresh culture media and viability was assessed at 1, 2, and 3 days post-storage using the metabolic activity indicator, alamarBlue.
# [5] = system: human hepatocytes; assay: Hypoxic normothermic stress of hepatocytes with supplements; type: cell-based
# Method: (§3) As an example, hepatocytes and C3A cells were placed under hypoxic conditions […] (normothermic incubation) in various commercial media with and without salubrinal or resveratrol. As with the cold thermal stress model, through the application of the current invention, preferential selection of either cell population was possible. The table in FIG. 10 summarizes the representative response of the various liver cells when placed into the two stress model conditions of thermal and hypoxic stress.
# (§4) Stress Regime 2—Hypoxia: Cells were held at 37° C. in an incubator with reduced levels of O2 for a 24 hour period. Two hypoxia models were utilized including increased CO2 levels providing for an 80% air: 20% CO2 ratio (versus standard 95% air: 5% CO2) as well as limited gas exchange using isolated environmental chambers. This procedure is designed to model various intervals of suboptimal culture conditions associated with cell processing and utilization.
# [6] = system: human lung fibroblasts (IMR-90); assay: Cold exposure of human lung fibroblasts (IMR-90); type: cell-based
# Method: Preliminary studies into Unfolded Protein Response (UPR) pathways in cell death associated with cell stress has provided promising results. The UPR activator, tunicamycin, was applied in a thermal stress regime. In FIG. 5, human lung fibroblasts (IMR-90) were exposed to the cold (4° C.) in cell culture media, Viaspan (with and without tunicamycin), or ViaSpan with DMSO (carrier solution for tunicamycin). The DMSO control acts as a chemical chaperone. It was hypothesized that the addition of tunicamycin would result in an increased level of cell death following thermal stress.
# With this discovery, additional studies were conducted under a more stressful thermal regime designed to completely destroy all cells. […] In subsequent studies, tunicamycin was added subsequent to (rather than during) the cold stress period and compared to samples without addition. (See FIG. 5).
# FIG. 5 also depicts the viability of human lung fibroblasts (IMR-90) following two days of cold exposure with the addition of resveratrol (FR234). […] Yet, when tunicamycin is added during the recovery phase, this agent has the predicted lethal effect as described in the UPR literature.
# [7] = system: rat primary hepatocytes; assay: Hypothermic stress of rat primary hepatocytes with supplements; type: cell-based
# Method: as §1, §2
# In FIG. 19, the C3A cells were then substituted with rat primary hepatocytes. […]
# [8] = system: C3A, human liver cancer cells; assay: Hypoxic normothermic stress of C3A cells with supplements; type: cell-based; conditions: normothermic hypoxic stress regime
# Method: as §3, §4
# [9] = system: human corneal endothelial cells (HCECs); assay: Viability of HCECs after hypothermic storage (alamarBlue); type: cell-based; conditions: for viability at 10 µM / viability at 25 µM: Homo sapiens, HCEC; for viability at 10 µM: 10 μM salubrinal; for survival difference between ViaSpan with and without tunicamycin: 3 days at 4° C.
# Method: as §1, §2
# Chemical Additions: Modulation of the UPR was accomplished through the use of salubrinal (UPR-specific inhibitor), tunicamycin (UPR-specific inducer), resveratrol, AKT, Vitamin D3, caspase and MPTP inhibitors, among others. For instance, salubrinal (EMD Chemicals Inc., Gibbstown, N.J.) was added to media at working concentrations of 10 and 25 μM immediately before utilization. Tunicamycin (EMD Chemicals Inc.) was added to ViaSpan at a working concentration of 2 ug/mL immediately prior to use. All chemicals were diluted in water, ethanol, or DMSO prior to utilization and DMSO controls were conducted to ensure no effect of the dilution vehicle.
# [10] = system: human corneal endothelial cells (HCECs); assay: Cell death populations in HCECs after cold storage (flow cytometry, fluorescence microscopy); type: cell-based
# Method: Fluorescence Microscopy: Samples in 96-well plates were assessed for the presence of live, necrotic or apoptotic cells through triple labeling using Hoechst [81 μM], propidium iodide [9 μM], and Y oPro-1 [0.8 μM] (Molecular Probes, Eugene, Oreg.), respectively. Probes were added to samples and incubated in the dark for 20 minutes prior to imaging. To assess membrane integrity a dual label of calcein-AM [4 μM] and propidium iodide [9 μM] was utilized. Dual label probes were added to the samples and incubated for 30 minutes in the dark. All fluorescence images of labeled cells were obtained at 1, 4, 8 and 24 hours post-storage using a Zeiss Axiovert 200 fluorescent microscope with the AxioVision 4 software (Zeiss, Germany).
# Flow Cytometric Analysis: Counts of the unlabeled (live), necrotic (PI [1.5 μM]) and apoptotic (YOPRO-1 [0.1 μM]) labeled cells were obtained using microfluidic flow cytometry (Millipore). Probes were added to each sample and incubated in the dark for 20 minutes prior to cell collection. Counts of cells with polarized and depolarized mitochondria (JC-1 [7.7 μM]) were also obtained via microfluidic flow cytometry. Samples were labeled, collected and analyzed at 1, 4, 8 and 24 hours post-storage. Analysis was performed using the CytoSoft 5.2 software for the Guava PCA-96 system.
# Following the observation of differences in viability through the targeted modulation of the UPR, we next analyzed what effect this targeted approach has on the level and timing of cell death following hypothermic storage. HCECs were held at 4° C. for 24 hours in various solutions (CGM, HBSS, ViaSpan and OptiSol) with and without the addition of 25 μM salubrinal and assessed via microfluidic flow cytometry and fluorescence microscopy. Analysis of the apoptotic and necrotic populations was conducted to examine the effect UPR inhibition (25 μM salubrinal) had on cell death populations post-storage.
compound,measurement,setting,value
"CC(=O)N[C@@H](CS)C(=O)O [NAC, N-Acetyl-Cysteine]",effect on cell division in extended post-stress culture,[1],no downstream negative effect on cell division
same,overall increase in sample recovery,"[1]; 10% DMSO condition, supplement for first 24 hours post-processing",~20%
"C=C1/C(=C\C=C2/CCC[C@]3(C)[C@@H]([C@H](C)CCCC(C)(C)O)CC[C@@H]23)C[C@@H](O)C[C@@H]1O [Vitamin D3, calcitriol]",protection of cells under stress regime,[2],protects cells
Oc1ccc(C=Cc2cc(O)cc(O)c2)cc1 [resveratrol],protection of human hepatocytes from cold stress / cell viability,[3],able to completely protect; also recorded: extended
same,effect on sample viability,[4],profound negative effect on sample viability
same,cell viability of hepatocytes,[5]; normothermic hypoxic stress regime,not for hepatocytes
same,effect of resveratrol on viability,[6]; two days of cold exposure,positive effects
same,protection of rat primary hepatocytes from hypothermic stress,[7],very effectively protected
same,cell viability of C3A cells,[8],extended the cell viability for C3A cells
O=C(/C=C/c1ccccc1)NC(NC(=S)Nc1cccc2cccnc12)C(Cl)(Cl)Cl (centres unmarked) [salubrinal],cell viability of hepatocytes,[5],extended the cell viability of hepatocytes
same,protection of rat primary hepatocytes from hypothermic stress,[7]; hypothermic exposure at 4° C.,failed to protect
same,viability over the 48 hour recovery period,"[9]; 24 hours at 4° C. in CGM, 25 μM salubrinal",retained
same,effect of salubrinal addition on viability,[9]; 24 hours at 4° C. in HBSS and ViaSpan,no differences
same,effect of salubrinal supplementation on viability,[9]; 48 hour storage in ViaSpan,no effect
same,viability,[9]; 48 hour storage in ViaSpan with salubrinal supplementation,76.7%
same,viability following 2 days of cold storage,"[9]; CGM and OptiSol, all samples with and without salubrinal",complete loss in viability
same,HCEC tolerance to stress,"[9]; FIG. 11, 18 hours of hypothermic storage",improves human corneal endothelial cell (HCEC) tolerance to stress
same,increase in cell survival,[9]; HCEC samples experiencing profound cold-induced failure,2 fold
same,viability at 10 µM,"[9]; 48 h, 2 days at 4° C. in HBSS, read-out: overall viability",26.9%
same,viability at 25 µM,"[9]; 48 h, 2 days at 4° C. in HBSS, 25 μM salubrinal, read-out: overall viability",37.8%
same,viability at 10 µM,"[9]; 24 hours at 4° C. in CGM, read-out: post-storage viability",23.1%
same,viability at 25 µM,"[9]; 24 hours at 4° C. in CGM, 25 μM salubrinal, read-out: post-storage viability",28%
same,viability at 10 µM,"[9]; 24 hours at 4° C. in OptiSol, read-out: post storage viability",52.3%
same,viability at 25 µM,"[9]; 24 hours at 4° C. in OptiSol, 25 μM salubrinal, read-out: post storage viability",53.9%
same,total cell retention during hypothermic exposure,"[10]; 25 μM salubrinal, 24 hours at 4° C.",increased retention of total cells
same,"levels of apoptosis, inhibited vs uninhibited","[10]; 25 μM salubrinal, 24 hours at 4° C., each time point",elevated
same,"necrotic populations, UPR inhibited vs uninhibited","[10]; 25 μM salubrinal, 24 hours at 4° C., normalized to normothermic control",similar
same,membrane integrity and cellular attachment during recovery,"[10]; CGM storage 24 hours, calcein-AM and propidium iodide",marked increase
tunicamycin,cell survival,[6]; post stress addition of tunicamycin (recovery phase),reduction in cell survival
same,thermal tolerance,[6]; tunicamycin in Viaspan during cold (4° C.) exposure,increase in thermal tolerance
same,effect of tunicamycin post-cold on samples exposed to resveratrol,[6]; two days of cold exposure,negating the positive effects of resveratrol
same,cell survival immediately post-storage,"[9]; 3 days at 4° C. in ViaSpan, tunicamycin 2 ug/mL, 0 hours recovery",~60%
same,survival difference between ViaSpan with and without tunicamycin,[9]; 24 hours of recovery,29.0%
same,survival difference between ViaSpan with and without tunicamycin,[9]; 48 hours post-storage,53.9%
same,HCEC survival during the recovery period,[9]; tunicamycin added during cold exposure,significant decrease in HCEC survival
